Measured values as given in BindingDB's records for doi:10.1016/j.bioorg.2014.12.001 (Hazara University, 2015).

Molecular target: Alpha-glucosidase MAL12 (Saccharomyces cerevisiae (strain ATCC 204508 / S288c), UniProt P53341)
Experiment: Alpha-glucosidase Assay
Description: Typically, α-glucosidase activity was assayed in 50 mM phosphate buffer (pH 6.8) containing 5% v/v DMSO and PNP glycoside was used as a substrate. The inhibitors were pre-incubated with enzyme at 37 °C for 0.5 h. The substrate was then added and the enzymatic reaction was carried out at 37 °C for 60 min. The reaction was monitored spectrophotometrically by measuring the absorbance at 400 nm.

Chain of Alpha-glucosidase MAL12 (P53341 whole entry): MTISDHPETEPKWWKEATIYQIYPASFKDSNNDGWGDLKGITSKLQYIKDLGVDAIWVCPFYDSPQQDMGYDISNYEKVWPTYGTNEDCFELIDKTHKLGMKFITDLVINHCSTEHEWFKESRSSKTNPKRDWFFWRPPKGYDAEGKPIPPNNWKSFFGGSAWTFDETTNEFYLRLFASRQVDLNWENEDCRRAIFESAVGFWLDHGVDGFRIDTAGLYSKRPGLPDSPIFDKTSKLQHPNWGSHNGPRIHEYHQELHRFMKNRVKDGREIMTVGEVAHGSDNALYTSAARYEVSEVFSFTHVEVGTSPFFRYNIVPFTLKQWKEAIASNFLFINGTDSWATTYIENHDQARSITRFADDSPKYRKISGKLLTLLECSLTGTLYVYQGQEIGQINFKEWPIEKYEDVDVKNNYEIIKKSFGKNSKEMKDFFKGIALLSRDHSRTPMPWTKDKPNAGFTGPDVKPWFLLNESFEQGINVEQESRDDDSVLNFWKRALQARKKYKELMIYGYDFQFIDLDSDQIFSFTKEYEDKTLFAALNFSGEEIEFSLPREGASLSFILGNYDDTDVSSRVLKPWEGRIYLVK

SMILES | IC50
O=C(CSc1nnc2c(n1)[nH]c1ccccc12)c1ccc(Br)cc1 [2-(5H-[1,2,4]triazino[5,6-b]indol-3-ylthio)-1-(4-bromophenyl)-ethanone (3)] | 37.8 µM
O=C(CSc1nnc2c(n1)[nH]c1ccccc12)c1cc2ccccc2oc1=O [3-(2-(5H-[1,2,4]triazino[5,6-b]indol-3-ylthio)acetyl)-2H-chromen-2-one (7)] | 37.4 µM
O=C(CSc1nnc2c(n1)[nH]c1ccccc12)c1ccc(-c2ccccc2)cc1 [2-(5H-[1,2,4]triazino[5,6-b]indol-3-ylthio)-1-(biphenyl-4-yl)-ethanone (2)] | 78.4 µM
COc1ccccc1C(=O)CSc1nnc2c(n1)[nH]c1ccccc12 [2-(5H-[1,2,4]triazino[5,6-b]indol-3-ylthio)-1-(2-methoxyphenyl)-ethanone (9)] | 51.6 µM
COc1cccc(C(=O)CSc2nnc3c(n2)[nH]c2ccccc23)c1 [2-(5H-[1,2,4]triazino[5,6-b]indol-3-ylthio)-1-(3-methoxyphenyl)-ethanone (10)] | 313 µM
O=C(CSc1nnc2c(n1)[nH]c1ccccc12)c1cccc(F)c1 [2-(5H-[1,2,4]triazino[5,6-b]indol-3-ylthio)-1-(3-flourophenyl)-ethanone (5)] | 38.1 µM

More lines, now with the values ahead:

IC50 | SMILES
2.46 µM | O=C(CSc1nnc2c(n1)[nH]c1ccccc12)c1cccc(O)c1 [2-(5H-[1,2,4]triazino[5,6-b]indol-3-ylthio)-1-(3-hydroxyphenyl)-ethanone (1)]
37.1 µM | O=C(CSc1nnc2c(n1)[nH]c1ccccc12)c1cccc(Br)c1 [2-(5H-[1,2,4]triazino[5,6-b]indol-3-ylthio)-1-(3-bromophenyl)-ethanone (11)]
36.9 µM | CC(Sc1nnc2c(n1)[nH]c1ccccc12)C(=O)c1ccccc1 (stereo not given) [2-(5H-[1,2,4]triazino[5,6-b]indol-3-ylthio)-1-phenylpropane-1-one (8)]
28.9 µM | COc1ccc(C(=O)CSc2nnc3c(n2)[nH]c2ccccc23)cc1 [2-(5H-[1,2,4]triazino[5,6-b]indol-3-ylthio)-1-(4-methoxyphenyl)-ethanone (4)]
